How the values were obtained:
[1] = Tissue distribution and half-life of carboplatin after CED into rat brain (LA-ICP-MS); assay type: in vivo
Description: Male Wistar rats (Charles River, UK) were group-housed and allowed to acclimatise prior to experimental procedures. Rats weighing 225 to 275 g were anaesthetised with an intraperitoneal dose of medetomidine (Dormitor; 0.4 mg/kg; Pfizer Animal Health, Kent, UK) and ketamine (Ketaset; 100 mg/kg; Pfizer, UK) and placed in a stereotactic frame (Stoelting Co, Wood Dale, Ill. USA). A linear incision was made between the glabella and the occiput and the skull exposed. Burr holes with a diameter of approximately 2 mm were drilled 1.0 mm anterior and 2.5 mm lateral to the bregma and cannulae were inserted to a depth of 2.5 mm below the dura. All cannulae were pre-primed with either saline or carboplatin and the desired dose prior to insertion into the brain. Every attempt was made to ensure that no air bubbles were present in the infusion cannula. Infusions of 2.5 μl of carboplatin at specific concentrations (outlined in Table 1) were conducted at a rate of 5 μl/min. Following infusion completion, the cannula was left in-situ for 10 min before being withdrawn at a rate of 1 mm/min. The wound was then closed with 5.0 Vicryl (Ethicon, Gargrave, UK) a dose of intramuscular buprenorphine was administered (Vetergesic; 0.03 mg/kg; Alstoe Animal Health, York, UK) and the anaesthetic was reversed with an intraperitoneal dose of atipamezole hydrochloride (Antisedan; 5 mg/kg; Pfizer, UK). […]
Resultant data (.csv files) was in the form of signal response for each monitored isotope (separate columns) against time; as such, ion-responses could be co-ordinated to form 2D elemental distribution maps, using the Graphis software package (Kylebank Software Ltd, Ayr, UK).
The laser ablation (LA) system was configured to perform multiple, parallel line-rastering of sections. […] Isotopes (^13C, ^57Fe, ^66Zn, ^157Gd and ^195Pt) were monitored in a time-resolved mode and selected on the basis of high-percentage abundance and minimal isobaric and polyatomic interferences. […]

[2] = high-dose intravenous delivery; cited from earlier work

N.N.O=C([O-])C1(C(=O)[O-])CCC1.[Pt+2] [carboplatin]
distribution in rat brain at 0 hours post-infusion ([1]; 0.03 mg/ml by CED into corpus callosum): widespread distribution
time platinum detectable by LA-ICP-MS ([1]; 0.03 mg/ml by CED into rat corpus callosum): up to 24 hours
time carboplatin remains in the brain ([1]; rat, CED): at least 24 hours
peak glioma tissue concentration [2]: 0.013 mg/mL

Reference: patent US20160136284A1, “GLIOMA TREATMENT” (priority 2012, published 2016)
